Measurements from patent publication EP4011367A1, “COMPOUNDS FOR USE IN THE TREATMENT OF COVID-19” (priority 2020, dated 2022).
Structures can show the parent of a compound that is named as a salt. Where two headings read alike, the source gives them in different places.

Target: T1, SARS-CoV-2 3CL-Pro (Severe acute respiratory syndrome coronavirus 2, UniProt P0DTD1)
T1 construct: SARS-CoV-2 main protease (3CL-Pro), also termed M-Pro
Assay: biochemical
Conditions: for inhibition at 20 µM: read-out: 3CL-Pro Inhibition [%] Primary Screen (20 µM)

Compound	IC50 [nM]	inhibition at 20 µM [%]	IC50 (read-out: IC50) [nM]	IC50 (dose response, 8 concentrations, absence of DTT, 60 min pre-incubation at 37 °C, 15 µM substrate, 60 nM enzyme, read-out: IC50) [nM]
Cc1ccc(-n2sc3ccccc3c2=O)cc1 [compound 12, 2-(4-methylphenyl)-1,2-benzothiazol-3-one]	20	101	–	–
O=C(O)c1ccc(SSc2ccc(C(=O)O)cn2)nc1 [compound 29, 6-[(5-carboxypyridin-2-yl)disulfanyl]pyridine-3-carboxylic acid]	–	100	240	–
O=[N+]([O-])c1ccc(Sc2cccc[n+]2[O-])c2nonc12 [compound 50, 4-Nitro-1-[(1-oxidopyridin-2-yl)sulfanyl]-2,1,3-benzoxadiazole]	–	102	100	–
CCOc1cc(C(Nc2cc(C)ccn2)c2ccc3cccnc3c2O)ccc1OC (centres unmarked) [compound 63, 7-[(3-Ethoxy-4-methoxyphenyl)[(4-methylpyridin-2-yl)amino]methyl]quinolin-8-ol]	270	98.9	–	–
S=c1[nH]nc(Cc2ccccc2)s1 [compound 20, 5-benzyl-3H-1,3,4-thiadiazole-2-thione]	–	101	–	390
CCN1CCN(C(c2ccc(C(F)(F)F)cc2)c2ccc3cccnc3c2O)CC1 (centres unmarked) [compound 52, 7-[(4-Ethylpiperazin-1-yl)[4-(trifluoromethyl)phenyl]methyl]q uinolin-8-ol]	–	100	150	–
Oc1ccc2ccccc2c1SSc1c(O)ccc2ccccc12 [compound 30, 1,1'-Disulfanediylbis(2-naphthol)]	–	91.3	510	–
CCC(C)SSc1ncc[nH]1 (centres unmarked) [compound 28, (2-Imidazolyl)(1-methylpropyl)disulfide]	–	100	–	–
C=C1C(=O)[C@@]23C(CC[C@@H]1[C@H]2O)[C@@]12CO[C@]3(O)[C@@H](O)[C@@H]1C(C)(C)CC[C@@H]2O (stereo partly drawn) [compound 91, (1S,5S,8R,9S,10S,11R,15S,18R)-9,10,15,18-tetrahydroxy-12,12-dimethyl-6-methylidene-17-oxapentacyclo[7.6.2.15,8.01,11.0 2,8]octadecan-7-one]	–	98.2	–	–
CCOC(=O)Cc1ccc(-c2ccccc2)cc1 [compound 57, [1,1'-Biphenyl]-4-acetic acid ethyl ester]	–	96.2	200	–
O=C(O[C@@H]1Cc2c(O)cc(O)cc2O[C@@H]1c1cc(O)c(O)c(O)c1)c1cc(O)c(O)c(O)c1 [compound 6, (-)-3,4,5-Trihydroxybenzoic acid 5,7-dihydroxy-2(R)-(3,4,5-trihydroxyphenyl)-3,4-dihydro-2H-1-benzopyran-3(R)-ylester]	–	95.3	–	–
CCCC[C@@H](C=O)NC(=O)[C@H](CC(C)C)NC(=O)OCc1ccccc1 [compound 39, N2-[(Benzyloxy)carbonyl]-N-[(2S)-1-oxohexan-2-yl]-L-leucinamide]	–	81	–	–
c1ccc2sc(SN3CCOCC3)nc2c1 [compound 27, 4-(1,3-benzothiazol-2-ylsulfanyl)morpholine]	–	99	5050	–
O=C1c2c(O)cc(O)cc2O[C@H](c2cc(O)c(O)c(O)c2)[C@H]1O [compound 2, (+)-3(R),5,7-Trihydroxy-2(R)-(3,4,5-trihydroxyphenyl)-3,4-dihydro-2H-1-benzopyran-4-one]	–	99.7	–	–
O=c1c2ccccc2sn1-c1ccccc1 [compound 14, 2-phenyl-1,2-benzothiazol-3-one]	20	100	–	–
COc1cccc(C(=O)CCN[C@@H](C)[C@H](O)c2ccccc2)c1 [compound 89, 3-[2(R)-Hydroxy-1(S)-methyl-2-phenylethylamino]-1-(3-methoxyphenyl)propan-1-one hydrochloride]	–	90.8	2350	–
O=C1C(Cl)=C(N2CCOCC2)C(=O)N1c1ccc(Cl)c(Cl)c1 [compound 15, 3-chloro-1-(3,4-dichlorophenyl)-4-morpholin-4-ylpyrrole-2,5-dione]	–	99.2	1140	–
